This is an account of results in US6384056B1, “Heterocyclic thioesters or ketones for vision and memory disorders” (GPI NIL Holdings, Inc., priority 1998, dated 2002).

FKBP12, sequence (P62942 whole entry, species assumed): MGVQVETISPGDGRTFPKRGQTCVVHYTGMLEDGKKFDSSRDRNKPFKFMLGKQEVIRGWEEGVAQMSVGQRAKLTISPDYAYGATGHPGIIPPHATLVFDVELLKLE

One data set concerns the target FKBP12 (Homo sapiens, UniProt P62942). In words: Ki test procedure: inhibition of peptidyl-prolyl isomerase (rotamase) activity, chymotrypsin-coupled assay. Conditions: apparent Ki. Format: biochemical. From the text: The inhibition of the prolyl peptidyl cis-trans isomerase activity of FKBP may be measured as an indicator of this affinity.
Inhibition of the peptidyl-prolyl isomerase (rotamase) activity of the compounds used in the inventive methods and pharmaceutical compositions can be evaluated by known methods described in the literature (Harding et al., Nature, 1989, 341:758-760; Holt et al. J. Am. Chem. Soc., 115:9923-9938).
The cis-trans isomerization of an alanine-proline bond in a model substrate, N-succinyl-Ala-Ala-Pro-Phe-p-nitroanilide, is monitored spectrophotometrically in a chymotrypsin-coupled assay, which releases para-nitroanilide from the trans form of the substrate. The inhibition of this reaction caused by the addition of different concentrations of inhibitor is determined, and the data is analyzed as a change in first-order rate constant as a function of inhibitor concentration to yield the apparent Ki values.
In a plastic cuvette are added […] of ice cold assay buffer (25 mM HEPES, pH 7.8, 100 mM NaCl), […] of FKBP (2.5 mM in 10 mM Tris-Cl pH 7.5, 100 mM NaCl, 1 mM dithiothreitol), […] of chymotrypsin (50 mg/ml in 1 mM HCl) and […] of test compound at various concentrations in dimethyl sulfoxide. The reaction is initiated by the addition of 5 mL of substrate (succinyl-Ala-Phe-Pro-Phe-para-nitroanilide 5 mg/mL in 2.35 mM LiCl in trifluoroethanol).
The absorbance at 390 nm versus time is monitored for 90 seconds using a spectrophotometer and the rate constants are determined from the absorbance versus time data files.
Turning to “2-Phenyl-1-ethyl 1-(3,3-dimethyl-1,2-dioxopentyl)-2-piperidinecarbothioate [Compound 10]”, the Ki turned out to be 12 nM. On to “4-Phenylbutyl 1-(3,3-dimethyl-2-oxopentanoyl)-2-piperidinecarbothioate [Compound 59]”, for which the Ki is 962 nM. Take “3-(2-Fluorophenyl)propyl (2S)-1-(3,3-dimethyl-2-oxopentanoyl)-2-pyrrolidinecarbothioate [Compound 57]”: the Ki was 57 nM. Turning to “4-Phenyl-1-butyl (2S)-1-(2-cyclohexyl-1,2-dioxoethyl)-2-pyrrolidinecarbothioate [Compound 33]”, the Ki worked out at 1700 nM. Take “3-(1-Naphthyl)-1-propyl 1-(3,3-dimethyl-2-oxopentanoyl)-2-piperidinecarbothioate [Compound 53]”: the Ki came to 261 nM.

In the case of “3-Phenyl-1-propyl (2S)-1-(2-cyclohexyl-1,2-dioxoethyl)-2-pyrrolidinecarbothioate [Compound 32]”, the Ki amounted to 362 nM. The same measure, in the same setting: for “2-Phenyl-1-ethyl (2S)-1-(2-cyclohexyl-1,2-dioxoethyl)-2-pyrrolidinecarbothioate [Compound 12]” the value was 442 nM; for “3-(3-Fluorophenyl)propyl (2S)-1-(3,3-dimethyl-2-oxopentanoyl)-2-pyrrolidinecarbothioate [Compound 58]”, 79 nM; for “1,5-Diphenyl-3-pentyl 1-(3,3-dimethyl-1,2-dioxopentyl)-2-piperidinecarbothioate [Compound 40]”, 1230 nM.

In the case of “3-(3-Chlorophenyl)propyl (2S)-1-(3,3-dimethyl-2-oxopentanoyl)-2-pyrrolidinecarbothioate [Compound 54]”, the Ki worked out at 37 nM. As for “4-Phenyl-1-butyl (2S)-1-(3,3-dimethyl-1,2-dioxopentyl)-2-pyrrolidinecarbothioate [Compound 34]”, the Ki amounted to 34 nM.

Consider “3-(1-Naphthyl)-1-propyl (2S)-1-(3,3-dimethyl-2-oxopentanoyl)-2-pyrrolidinecarbothioate [Compound 47]”, for which the Ki is 21 nM. Same read-out and setting: the value for “4-Phenyl-1-butyl 1-(1,2-dioxo-3,3-dimethylbutyl)-2-piperidinecarbothioate [Compound 39]” was 347 nM; that for `CCC(C)(C)C(=O)C(=O)N1CCC[C@H]1C(=O)CCCCc1ccccc1` [Compound 1, (2S)-3,3-dimethyl-1-[2-(5-phenylpentanoyl)pyrrolidinyl]pentane-1,2-dione] was 31 nM. Turning to “2-Phenyl-1-ethyl (2S)-1-(1-cyclopentyl-1,2-dioxoethyl)-2-pyrrolidinecarbothioate [Compound 28]”, the Ki stood at 108 nM. For the molecule “3-(2-Chlorophenyl)propyl (2S)-1-(3,3-dimethyl-2-oxopentanoyl)-2-pyrrolidinecarbothioate [Compound 61]”, the Ki was 139 nM.

As for “3-(para-Methoxyphenyl)-1-propyl 1-(2-phenyl-1,2-dioxoethyl)piperidine-2-carbothioate [Compound 43]”, the Ki worked out at 259 nM. The same measure, in the same setting: for “2-Phenyl-1-ethyl 1-(2-phenyl-1,2-dioxoethyl)-2-piperidinecarbothioate [Compound 14]” the value was 313 nM; for “4,4-Di(para-fluorophenyl)butyl 1-(3,3-dimethyl-2-oxopentanoyl)-2-pyrrolidinecarbothioate [Compound 46]”, 757 nM; for `CCC(C)(C)C(=O)C(=O)N1CCCC1C(=O)SCc1csc2ccccc12` (stereo not shown) [Compound 11], 299 nM. Take “3-Phenylpropyl 1-(3,3-dimethyl-2-oxopentanoyl)-2-piperidinecarbothioate [Compound 60]”: the Ki came out at 90 nM. With “3-(3-Fluorophenyl)propyl 1-(3,3-dimethyl-2-oxopentanoyl)-2-piperidinecarbothioate [Compound 64]”, the Ki amounted to 163 nM.

Consider “3-Phenyl-1-propyl 1-(3,3-dimethyl-1,2-dioxobutyl)-2-piperidinecarbothioate [Compound 29]”, for which the Ki was determined as 59 nM. The same measure, in the same setting: the value for “3-(3-Pyridyl)-1-propyl (2S)-1-(2-cyclohexyl-1,2-dioxoethyl)-2-pyrrolidinecarbothioate [Compound 35]” was 62 nM; that for `CC(C)(C)C(=O)C(=O)N1CCC[C@H]1C(=O)CCCCc1ccccc1` [Compound 3, (2S)-2-(1-oxo-5-phenyl)-pentyl-1-(3,3-dimethyl-1,2-dioxobutyl)pyrrolidine] was 85 nM; that for `CCC(C)(C)C(=O)C(=O)N1CCCC[C@H]1C(=O)SCC(c1ccccc1)c1ccccc1` [Compound 49, 2,2-Diphenylethyl (2S)-1-(3,3-dimethyl-2-oxopentanoyl)-2-piperidinecarbothicate] was 1330 nM.

The next data set concerns retinal ganglion cell axons. The experiment in a line: protection of retinal ganglion cell axons from degeneration 14 days after optic nerve transection (RT97). Format: in vivo. To be noted: ± SEM. From the text:
Efficacy of represetative compounds from different immunophilin ligand series in protecting retinal ganglion cell axons from degeneration following optic nerve transection set forth in Table 9.
Efficacy of representative compounds from different immunophilin ligand series in protecting retinal ganglion cell axons from degeneration following optic nerve transection
Regarding `CCC(C)(C)C(=O)C(=O)N1CCC[C@H]1C(=O)SCCC(c1ccccc1)c1ccccc1` [M], the “RT 97 + RGC axon density 14 days after ON transaction (36 ON axons rescued)” value (“RT 97 + RGC axon density 14 days” below) was −6.3% +3.9% SEM. For the molecule `O=C(SCCCc1ccccc1)[C@@H]1CCCN1S(=O)(=O)Cc1ccccc1` [C], the “RT 97 + RGC axon density 14 days” value is recorded as 60.4% ±3.1% SEM. Regarding `CCC(C)(C)C(=O)C(=O)N1CCS[C@H]1C(=O)OCCCc1cccnc1` [F], the “RT 97 + RGC axon density 14 days” value is reported as 55.1% ±5.9% SEM. Same read-out and setting: the value for `CCC(C)(C)C(=O)C(=O)N1CCCC[C@H]1C(N)=O` [H] was 30.3% ±8.0% SEM; that for `CCC(C)(C)C(=O)C(=O)N1CCC[C@H]1C(=O)CCCCc1cccnc1` [J] was 15.8% ±4.8% SEM; that for `CCC(C)(C)C(=O)C(=O)N1CCCC[C@H]1C(=O)OC(CCc1ccccc1)CCc1ccccc1` [E] was 56.6% ±9.4% SEM.

With `CCC(C)(C)C(=O)C(=O)N1CCC[C@H]1C(=O)O` [L], the “RT 97 + RGC axon density 14 days” value was 7.8% ±3.0% SEM. The same measure, in the same setting: for `O=C(OCCCc1ccccc1)[C@@H]1CCCCN1S(=O)(=O)Cc1ccccc1` [D] the value was 58.4% ±6.4% SEM; for `O=C(OCCCc1cccnc1)[C@@H]1CCCN1C(=S)NC1CCCCC1` [I], 23.8% ±5.3 SEM; for `O=C(SCCCc1ccccc1)[C@@H]1CCCN1C(=O)NC12CC3CC(CC(C3)C1)C2` [B], 100.0% ±5.2% SEM. For `CCC(C)(C)C(=O)C(=O)N1CCCC[C@H]1C(=O)O` [G], the “RT 97 + RGC axon density 14 days” value is reported as 34.0% ±4.8% SEM. Take `CCC(C)(C)C(=O)C(=O)N1CCCC[C@H]1C(=O)SCCC(c1ccccc1)c1ccccc1` [K]: the “RT 97 + RGC axon density 14 days” value is reported as 13.0% ±4.2% SEM.

System in the next data set: not listed separately
The experiment in a line: Clearance. To be noted: Table 9 comments. Format: in vitro ADME.
Turning to `CN(C)C(=O)N1CCC[C@H]1C(=O)SCCCc1ccccc1` [N], the Clearance is 21.9 µL/min. Still for that read-out and setting: the value for `CCC(C)(C)C(=O)C(=O)N1CCC[C@H]1C(=O)SCCC(c1ccccc1)c1ccccc1` [M] was 12.5 µL/min.

The molecule `O=C(SCCCc1ccccc1)[C@@H]1CCCN1S(=O)(=O)Cc1ccccc1` [C] had a Clearance of 31.1 µL/min. On to `CCC(C)(C)C(=O)C(=O)N1CCC[C@H]1C(=O)CCCCc1cccnc1` [J], for which the Clearance stood at 1.5 µL/min.

Molecule `CCC(C)(C)C(=O)C(=O)N1CCCC[C@H]1C(=O)OC(CCc1ccccc1)CCc1ccccc1` [E] gave a Clearance of 41.8 µL/min. With `CCC(C)(C)C(=O)C(=O)N1CCC[C@H]1C(=O)O` [L], the Clearance amounted to 5.2 µL/min.

In turn, `O=C(OCCCc1cccnc1)[C@@H]1CCCN1C(=S)NC1CCCCC1` [I] yielded a Clearance of 8.0 µL/min.

As for `CCC(C)(C)C(=O)C(=O)N1CCCC[C@H]1C(=O)SCCC(c1ccccc1)c1ccccc1` [K], the Clearance is 4.5 µL/min.
